Test results from patent US20050191348A1 (priority 2004, published 2005).
Marks after values point to notes of the source that are not given here.

Columns and labels:
PC12 cells = conditions: PC12, 10 μM, 24 h
sAPPα = sAPPα release into medium of SH-SY5Y neuroblastoma cells; assay type: cell-based, human; conditions: 3 h; for sAPPα secretion (fold/basal): 1 μM, SH-SY5Y conditioned media, mean ± SE of three experiments
Description: For the experiments, cells were seeded (2×10^6) onto 100-mm plates (for SH-SY5Y cells) or T75 flasks (for PC12 cells) in culture medium supplemented with full serum for 48 h. The cells were replaced with fresh medium containing 0.5% FCS for an additional 24 h (subconfluent culture), and then the experiments were performed in fresh medium containing 0.5% FCS for the indicated time periods at 37° C. After incubation with various drugs, the conditioned media were collected, centrifuged at 3500 g (10 min, 4° C.) to remove cell debris, and the cleared supernatants were concentrated 10-fold by lyophilization.
(vii) Determination of sAPP. Protein concentrations of cell lysates were assayed using Bradford reagent (Sigma Chemical). Equal amounts of volumes of conditioned medium, standardized to lysate protein, were subjected to […], using either the MAbs 22C11 or 6E10 in 50 mM Tris-HCl, pH 7.4, 150 mM NaCl, containing 0.05% Tween 20 and 1% BSA. Immunoreactivity was detected using anti-mouse IgG-conjugated with HRP and an enhanced chemiluminescence method (Amersham, Pharmacia Biotech, UK). Blots were developed for different times to span a linear range of response, and the relative intensity of immunoreactive bands on the exposed films was quantified by computer-assisted densitometry program (Quantity One, Bio-Rad, Hercules, Calif., USA).
It was of interest to determine whether rasagiline and other propargylamine-containing drugs also regulate APP processing. For this purpose, SH-SY5Y neuroblastoma cells were incubated for 3 h without or with 1 μM of various drugs (TV3326 and its S-isomer TV3279, rasagiline and its S-isomer TVP1022, selegiline, aminoindan), and sAPPα was measured in the media as described in Materials and Methods.
We further characterized, in detail, the effect of rasagiline on APP processing and the signaling pathways that are involved. Thus, SH-SY5Y neuroblastoma cells were incubated for 3 h without or with increasing concentrations of rasagiline (0.1, 1 and 10 μM), and sAPPα was measured in the media as described in Materials and Methods.
For the sAPPα release, SH-SY5Y neuroblastoma cells or PC12 cells were incubated for 3 h without or with increasing concentrations of propargylamine (0.1, 1 and 10 μM), and sAPPα was measured in the media as described in Materials and Methods.

MAPK = MAPK activation (phospho-p44/42 MAPK immunoblot) in PC12 cells; assay type: cell-based, rat
Description: (viii) Extracellular signal-regulated kinase (ERK) activity. The kinase activity of the ERKs was measured using the MAPK assay kit (Cell Signaling Technology) according to the manufacturer's protocol. In brief, for kinase activity assays, PC12 cells were grown in 6-well plates (5×10^5 cells/well). Eighteen to twenty-four hours before experiments, the medium was replaced with DMEM with 0.5% FCS and treated as described in the figures. Experimental treatments were performed in 1 ml medium containing 0.5% FCS, with the vehicle or test drugs and/or inhibitors at 37° C., as described in the figures. After treatment, reactions were stopped by placing cells on ice and aspirating the medium. Cells were harvested in 50 mM Tris-HCl, pH 8.0, 150 mM NaCl, 5 mM EDTA, 1 mM DTT, 1% Triton X-100, and protease- and phosphatase-inhibitor cocktails. Protein concentration was determined by the Bradford method. As described previously (Yogev-Falach et al., 2002), each cell lysate, containing 30 μg protein, was separated on 4-12% SDS-polyacrylamide electrophoresis gels, immunoblotted, and identified using phospho-p44/42 MAPK (Thr202/Tyr204) antibody or p44/42 MAPK antibody. Data are representative of three to six independent experiments.
To study the effect of rasagiline on MAPK activation, PC12 cells were treated for 0.5 h with increasing concentrations of rasagiline (0.1, 1 and 10 μM), and quantification of the phospho-MAPK blots were normalized using the total MAPK blots, or PC12 cells were preincubated for 15 min with vehicle alone, or with PD98059 (30 μM) or GF109203X (2.5 μM) and then incubated without or with rasagiline (10 μM) for 0.5 h. Aliquots of cell lysates were then subjected to immunoblot analysis and probed with anti-phospho-MAPK (top blots) and anti-MAPK (bottom blots).
For the effect of propargylamine on MAPK activation, PC12 cells were treated for 0.5 h with increasing concentrations of propargylamine (0.1, 1 and 10 μM). Aliquots of cell lysates were then subjected to immunoblot analysis and probed with anti-phospho-MAPK and anti-MAP kinase. Quantification of the phospho-MAPK were normalized using the total MAPK blots.

PKC = PKC phosphorylation in PC12 cell lysates, Western blot with p-PKC (pan) antibody; assay type: cell-based, rat; conditions: PC12, pre-treatment 2.5 μM
Description: (iv) Immunoblot Analyses. For Western blot analyses, attached cells were washed once in cold PBS and then lysed in 1× nonreducing Laemmli buffer followed by boiling for 3-5 min. Protein content was determined using the Bradford method. Equal amounts of protein were separated by SDS-polyacrylamide gel electrophoresis and blotted onto polyvinylidene difluoride (PVDF) membranes (Millipore). Membranes were treated with blocking buffer (5% dry milk in PBS or 5% dry milk, 0.05% Tween 20 (Sigma) in TBS). Primary antibodies were diluted in PBS or in TBS containing 5% BSA, 0.05% Tween 20 and incubated with membranes for 20 h at 4° C., followed by incubation (1 h at room temperature) in dilutions of horseradish peroxidase (HRP)-conjugated secondary antibodies in the same buffers. Following antibody incubations, membranes were washed in 0.5% Tween 20 in PBS or TBS. Detection was achieved using ECL™ Western Blotting Detection Reagent (Amersham, Pharmacia, Little Chalfort Buckinghamshire, UK). Quantification of results was accomplished by measuring the optical density of the labeled bands from the autoradiograms by scanning laser densitometry using the computerized imaging program Bio-ID (Imager, Bio1D software; Vilber Lourmat, Marne La Vallee, France). The values were normalized to β-actin intensity levels.
Since activation of PKC has been shown previously to modulate cell viability, resulting in protection of neuronal cells, it was of interest to investigate the effects of rasagiline on PKC activation. In one experiment, PC12 cells were untreated or treated with various concentrations of rasagiline (0.1, 1 and 10 μM) for 1 hour. […] Phosphorylation of PKC was analyzed in cell lysates by Western blotting and detected with p-PKC (pan) antibody.
The effect of propargylamine on PKC phosphorylation/activation was investigated as described in Example 2 above.

caspase-3, BAD = test: Serum free-induced caspase-3 cleavage and BAD levels (rasagiline, data not shown); assay type: cell-based
[1] = tested on: Bcl-2 family and PKC isoform mRNA; test: Gene expression by quantitative real-time RT-PCR in serum-free PC12 cells; assay type: cell-based, rat
Description: (vi) Total RNA extraction. PC12 cells were cultured in DMEM containing 5% FCS and 10% horse serum until confluence. At the day of the experiment, the medium was replaced with fresh medium without serum and rasagiline or propargylamine at various concentrations were administered for 24 h. At the end of incubation, the medium was removed and isolation of total RNA was performed, using Tri Reagent™ Isolation reagent. Total RNA was treated with DNase-RNase free (Roche Diagnostics, Mannheim, Germany) for 30 min at 37° C. and subsequently extracted by a round of phenol:chlorophorm:isoamylalcohol (25:24:1), followed by one of chloroform. After precipitation with NaOAc (0.3 M) and ethyl alcohol, the RNA pellet was washed with 80% ethyl alcohol (12,000×g) for 10 min and resuspended in 50-100 μl of diethylpyrocarbonate (DEPC)-treated water and incubated for 5-10 min at 56° C. to facilitate resuspension.
(vi) Reverse transcription (RT) and quantitative real-time RT-PCR. In order to confirm the results obtained with the customized cDNA expression micro-array, 2 μg of total RNA were denatured and reverse transcribed using random hexanucleotides (0.5 μg/μl). Secondary structures of the template and primer (total volume of 16 μl) were opened by incubation for 5 min at 70° C. and immediately cooled on ice. Reaction mix (9 μl) containing reaction buffer, dNTP (0.5 mm each), RNAasin™ RNAase inhibitor (Promega) (25U) and M-MLV reverse transcriptase (200U) was added and samples were incubated at 39° C. for 1 h. For every RNA preparation a negative control was run in parallel consisting of a direct amplification of the RNA sample, omitting the RT step. The samples were transferred to 92° C. for 10 min, in order to deactivate the enzyme, and then cooled to 4° C.
Quantitative real-time PCR, using LightCycler and FastStart DNA Master SYBR Green I ready-to use PCR mix, was performed according to the manufacture's protocol (Roche Diagnostics, Mannheim, Germany). cDNA (40 ng) was amplified in 20 μl total volume. The sequences of the primers and the size of the products are described in Table 1. The results are analyzed on the provided program of the LightCycler. The relative expression level of a given mRNA was assessed by normalizing to the housekeeping gene 18S-rRNA and compared with control values.
In this experiment, we examined whether Bcl-2 family proteins mediate the pro-survival effect of rasagiline, using serum-starved rat pheochromocytoma PC12 cell line as a model of neuronal apoptosis. PC12 cells were maintained in full-serum (control), or in serum-free (SF) media in the absence or presence of various concentrations of rasagiline (0.001, 0.1, 1 and 10 μM) for 3 h or 24 h, and gene expression was measured by quantitative real-time RT-PC. The real-time RT-PCR consists of RNA samples isolated from said PC-12 cells. Each gene expression was normalized to the housekeeping gene, 18S-rRNA, since this transcript was reported to be less susceptible to the influence by external factors.
The effect of propargylamine on Bad and Bax mRNA levels was examined as described in Example 5 above.

[2] = tested on: p-PKC (pan), PKCα and PKCε; test: PKC translocation to membrane fraction of PC12 cells; assay type: cell-based, rat; conditions: PC12, 100 nM, 2 h
Description: (v) PKC translocation. Cells were cultured to confluence and treated for 2 h with either no drug (control), phorbol 12-myristate-13-acetate (PMA) (positive control) or rasagiline. After washing, the cells were harvested, collected by centrifugation (5 min, 1500 rpm), and homogenized by sonication (12 s, 22μ) in homogenization buffer (20 mM Tris-HCl, pH 7.4, 0.32 M sucrose, 2 mM EDTA, 50 mM β-mercaptoethanol) containing a protease inhibitor cocktail (Sigma Aldrich, Sweden). Cytosolic and particulate fractions were separated by ultracentrifugation (30 min, 100,000 g, 4° C.). For the particulate fraction, proteins were extracted by a 45 min incubation on ice in homogenization buffer containing 0.5% Triton X-100. Samples were then sonicated for 1 min and equivalent amounts of protein (15 μg) separated by PAGE followed by blotting onto nitrocellulose paper. Western blotting was performed essentially as described above using antibodies against p-PKC (pan), PKCα and PKCε.
PKC translocation to the membrane fraction upon activation and membrane localization is often used as a marker for PKC activation.

Compound: Aβ1-42: amyloidogenic Aβ peptide, used as toxic insult
- cell viability (PC12 cells): 66 % of control

Compound: C#CCN[C@@H]1CCc2ccc(OC(=O)N(C)CC)cc21 [TV3326, (N-propargyl-(3R)aminoindan-5yl)-ethyl methyl carbamate]
- sAPPα secretion (fold/basal) (sAPPα): 2.86 ± 0.35^b fold/basal

Compound: COc1cccc(-c2cc(=O)c3ccccc3o2)c1N [PD98059]
- effect on rasagiline-induced MAPK phosphorylation (MAPK; PC12, pretreatment 30 μM, rasagiline 10 μM 0.5 h): blocked the rasagiline-induced increase of MAPK phosphorylation

Compound: C#CCN[C@H]1CCc2ccc(OC(=O)N(C)CC)cc21 [TV3279]
- sAPPα secretion (fold/basal) (sAPPα): 2.76 ± 0.36^b fold/basal

Compound: CN(C)CCCn1cc(C2=C(c3c[nH]c4ccccc34)C(=O)NC2=O)c2ccccc21 [GF109203X]
- effect on rasagiline-induced MAPK activation (MAPK; PC12, preincubation 2.5 μM, rasagiline 10 μM 0.5 h): abolished the effect of rasagiline on MAPK activation
- effect on propargylamine-induced PKC phosphorylation (PKC; propargylamine 1 μM 1 h): blocked the effect of propargylamine on PKC phosphorylation
- effect on rasagiline-induced PKC phosphorylation (PKC; rasagiline 1 μM 1 h): significantly reduced rasagiline-induced PKC phosphorylation
- effect on rasagiline-induced decrease of BAD (caspase-3, BAD): blocked
- effect on rasagiline suppression of caspase-3 cleavage (caspase-3, BAD; data not shown): reversed

Compound: NC1CCc2ccccc21 (centres unmarked) [Aminoindan, aminoindan]
- sAPPα secretion (fold/basal) (sAPPα): 1.23 ± 0.32 fold/basal
- sAPPα released into the medium (sAPPα; SH-SY5Y, 0.1, 1 and 10 μM, versus untreated cells): did not show such effects
- MAPK phosphorylation (MAPK; PC12, 0.1, 1 and 10 μM, 0.5 h): did not show such effects

Compound: C#CCN[C@@H]1CCc2ccccc21 [Rasagiline, N-propargyl-(1R)-aminoindan]
- Bad mRNA reduction ([1]; 1 μM, 3 h): 1.35 fold vs. serum free treatment
- Bcl-xL mRNA expression increase ([1]; 10 μM, 24 h, compared to serum-free culture): about 2 fold
- Bad mRNA reduction ([1]; 0.01 and 0.1 μM, 24 h): ~2.5 fold vs. serum free culture
- Bcl-W mRNA expression ([1]; 0.1, 1 and 10 μM, 24 h): 135 % of serum-free culture
- sAPPα secretion (fold/basal) (sAPPα): 2.97 ± 0.15^b fold/basal
- increase in sAPPα secretion over the basal levels (sAPPα; SH-SY5Y, 10 μM (maximal effect)): ~3.0 fold
- lowest dose giving MAPK activation (MAPK; PC12, 0.5 h): 0.1 µM

Compound: CCCCCCCCCCCCCC(=O)O[C@@H]1[C@@H](C)[C@@]2(O)[C@@H](C=C(CO)C[C@]3(O)C(=O)C(C)=C[C@@H]23)[C@@H]2C(C)(C)[C@]12OC(C)=O [PMA, phorbol 12-myristate-13-acetate]
- translocation of PKCα [2]: 157%
- translocation of PKCε [2]: 212%
- translocation of p-PKC (pan) [2]: 214%

Compound: C#CCN(C)[C@H](C)Cc1ccccc1 [Selegiline, R-(−)-N-methyl-N-(prop-2-ynyl)-2-aminophenylpropane]
- sAPPα secretion (fold/basal) (sAPPα): 2.03 ± 0.21^c fold/basal
